Data: ChEMBL document CHEMBL1201862, “PubChem BioAssay data set” (2004)
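Interpolation was linear, between the two tested concentrations surrounding the appropriate level; five concentrations were tested over 48 hours in 96-well plates. GI50: concentration for 50% inhibition of growth.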 Activity calls are given as the source filed them. Cut-off read from the data, not from the text of the source: active = GI50 up to about 1.1 µM and inactive = higher.

How the values were obtained:
Test in all cases: inhibition of tumour cell growth, NCI panel, 48 h
[1] = test system: 786-0
[2] = test system: A498
[3] = test system: A549
[4] = test system: ACHN
[5] = test system: BT-549
[6] = test system: CAKI-1
[7] = test system: CCRF-CEM
[8] = test system: COLO 205
[9] = test system: DU-145
[10] = test system: EKVX
[11] = test system: HCT-116
[12] = test system: HCT-15
[13] = test system: HL-60
[14] = test system: HOP-62
[15] = test system: HOP-92
[16] = test system: HT-29
[17] = test system: Hs-578T
[18] = test system: KM12
[19] = test system: LOX IMVI
[20] = test system: M14
[21] = test system: MCF7
[22] = test system: MDA-MB-231
[23] = test system: MDA-MB-435
[24] = test system: MDA-N
[25] = test system: MOLT-4
[26] = test system: NCI-H226
[27] = test system: NCI-H23
[28] = test system: NCI-H460
[29] = test system: NCI-H522
[30] = test system: NCI/ADR-RES
[31] = test system: OVCAR-3
[32] = test system: OVCAR-4
[33] = test system: OVCAR-5
[34] = test system: OVCAR-8
[35] = test system: PC-3
[36] = test system: SF-268
[37] = test system: SF-295
[38] = test system: SF-539
[39] = test system: SK-MEL-28
[40] = test system: SK-MEL-2
[41] = test system: SK-MEL-5
[42] = test system: SK-OV-3
[43] = test system: SN12C
[44] = test system: SNB-19
[45] = test system: SNB-75
[46] = test system: SW-620
[47] = test system: T47D
[48] = test system: TK-10
[49] = test system: U-251
[50] = test system: UACC-257
[51] = test system: UACC-62
[52] = test system: UO-31
[53] = test system: IGROV-1
[54] = test system: K562
[55] = test system: Malme-3M
[56] = test system: RPMI-8226
[57] = test system: RXF 393

`CCCCCCCCCCCC(=O)OCC(O)CO` (configuration not stated) [GLYCEROL MONOLAURATE] was tested, and the GI50 [1] was > 100 µM (inactive), the GI50 [2] was > 100 µM (inactive) and the GI50 [3] was 54.1 µM (inactive). For the same molecule, the GI50 [4] was > 100 µM (inactive), the GI50 [5] was 36.4 µM (inactive) and the GI50 [6] was > 100 µM (inactive). The GI50 [7] was 42.7 µM (inactive), the GI50 [8] was > 100 µM (inactive) and the GI50 [9] was > 100 µM (inactive). For the same molecule, the GI50 [10] was > 100 µM (inactive), the GI50 [11] was > 100 µM (inactive) and the GI50 [12] was over 100 µM. The GI50 [13] was 12.9 µM (inactive), the GI50 [14] was > 100 µM (inactive) and the GI50 [15] was > 100 µM (inactive). For the same molecule, the GI50 [16] was 31.2 µM (inactive), the GI50 [17] was > 100 µM (inactive) and the GI50 [18] was 20.4 µM (inactive). For the same molecule, the GI50 [19] was 48.1 µM (inactive), the GI50 [20] was 69.7 µM (inactive) and the GI50 [21] was > 100 µM (inactive). For the same molecule, the GI50 [22] was > 100 µM (inactive), the GI50 [23] was 61.4 µM (inactive) and the GI50 [24] was 88.9 µM (inactive). For the same molecule, the GI50 [25] was 37.1 µM (inactive), the GI50 [26] was > 100 µM (inactive) and the GI50 [27] was 67.3 µM (inactive). The GI50 [28] was 80.5 µM (inactive), the GI50 [29] was > 100 µM (inactive) and the GI50 [30] was > 100 µM (inactive). For the same molecule, the GI50 [31] was 76.9 µM (inactive), the GI50 [32] was > 100 µM (inactive) and the GI50 [33] was > 100 µM (inactive). The GI50 [34] was > 100 µM (inactive), the GI50 [35] was > 100 µM (inactive) and the GI50 [36] was > 100 µM (inactive). For the same molecule, the GI50 [37] was > 100 µM (inactive), the GI50 [38] was > 100 µM (inactive) and the GI50 [39] was > 100 µM (inactive). The GI50 [40] was > 100 µM (inactive), the GI50 [41] was 59 µM (inactive) and the GI50 [42] was > 100 µM (inactive). For the same molecule, the GI50 [43] was > 100 µM (inactive), the GI50 [44] was > 100 µM (inactive) and the GI50 [45] was > 100 µM (inactive). For the same molecule, the GI50 [46] was > 100 µM (inactive), the GI50 [47] was 69.3 µM (inactive) and the GI50 [48] was > 100 µM (inactive). The GI50 [49] was 71.3 µM (inactive), the GI50 [50] was > 100 µM (inactive) and the GI50 [51] was > 100 µM (inactive). The GI50 [52] was 71.9 µM (inactive).
In the case of `CO[P@]1(=O)O[C@@H](c2ccccc2)[C@H](O)[C@]1(O)c1ccccc1`, the GI50 [1] was > 100 µM (inactive), the GI50 [2] was > 100 µM (inactive) and the GI50 [3] was > 100 µM (inactive). The GI50 [4] was > 100 µM (inactive), the GI50 [5] was > 100 µM (inactive) and the GI50 [6] was > 100 µM (inactive). The GI50 [7] was > 100 µM (inactive), the GI50 [8] was > 100 µM (inactive) and the GI50 [9] was > 100 µM (inactive). The GI50 [10] was > 100 µM (inactive), the GI50 [11] was > 100 µM (inactive) and the GI50 [12] was over 100 µM. For the same molecule, the GI50 [13] was > 100 µM (inactive), the GI50 [15] was > 100 µM (inactive) and the GI50 [16] was > 100 µM (inactive). The GI50 [17] was > 100 µM (inactive), the GI50 [53] was > 100 µM (inactive) and the GI50 [54] was > 100 µM (inactive). The GI50 [18] was > 100 µM (inactive), the GI50 [19] was > 100 µM (inactive) and the GI50 [20] was > 100 µM (inactive). For the same molecule, the GI50 [21] was > 100 µM (inactive), the GI50 [22] was > 100 µM (inactive) and the GI50 [23] was > 100 µM (inactive). The GI50 [24] was > 100 µM (inactive), the GI50 [55] was > 100 µM (inactive) and the GI50 [26] was > 100 µM (inactive). The GI50 [27] was > 100 µM (inactive), the GI50 [28] was > 100 µM (inactive) and the GI50 [29] was > 100 µM (inactive). For the same molecule, the GI50 [30] was > 100 µM (inactive), the GI50 [31] was > 100 µM (inactive) and the GI50 [32] was > 100 µM (inactive). For the same molecule, the GI50 [33] was > 100 µM (inactive), the GI50 [34] was > 100 µM (inactive) and the GI50 [35] was > 100 µM (inactive). The GI50 [56] was > 100 µM (inactive), the GI50 [57] was > 100 µM (inactive) and the GI50 [36] was > 100 µM (inactive). For the same molecule, the GI50 [37] was > 100 µM (inactive), the GI50 [38] was > 100 µM (inactive) and the GI50 [39] was > 100 µM (inactive). The GI50 [40] was > 100 µM (inactive), the GI50 [41] was > 100 µM (inactive) and the GI50 [42] was > 100 µM (inactive). The GI50 [43] was > 100 µM (inactive), the GI50 [44] was > 100 µM (inactive) and the GI50 [45] was > 100 µM (inactive). For the same molecule, the GI50 [46] was > 100 µM (inactive), the GI50 [47] was > 100 µM (inactive) and the GI50 [48] was > 100 µM (inactive). For the same molecule, the GI50 [49] was > 100 µM (inactive), the GI50 [50] was > 100 µM (inactive) and the GI50 [51] was > 100 µM (inactive). For the same molecule, the GI50 [52] was > 100 µM (inactive).
